Experimental data as given in patent US20100204277A1, “Compositions and Methods for Controlling Infestation” (HATCHTECH PTY LTD., priority 2007, published 2010).
Where two headings read alike, the source gives them in different places. Non-standard residues stand in square brackets, D forms with d. Residues, ends and D or L forms follow the SMILES beside them. *: point of attachment. Sta = CC(C)C[C@H](N)[C@@H](O)CC(=O)O; Isovaleryl = CC(C)CC(=O)*

What was measured:
[1] = system: Plutella xylostella eggs (Waite strain); test: Plutella xylostella egg hatch (egg dip); conditions: for ovicidal efficacy against Plutella eggs (FIG. 7): 1% diethoxyglycol; for % Inhibition of egg hatch relative to control: Example 12, dip 2-10 seconds, day 6 post laying; for egg hatching of Plutella eggs (Tables 10 and 11): cloth or parafilm
[2] = system: Lice (L) / Plutella (P) eggs; assay type: in vivo; conditions: Lice/Plutella: P
Protocol: Log LD50 is obtained from the observed percentage ovicidal activity by conversion using a modified logit transformation. The observed percentage ovicidal activity values were transformed using the equation:
The additional 5% was used to allow a number to be calculated when 0% and 100% activity was observed. The BA is a crude correction to the log of the concentration at which the compounds were tested. Correlation between BA values and LD50 allows the calculation of Log LD50. […] A number of metal chelating agents with potential for inhibiting the remodelling events associated with thin membrane egg hatching in lice were analysed by comparing their percentage ovicidal activity in lice at different concentrations, their logit calculated pLD50, Pref pLD50, Activity class, clogP and molar refractivity were determined.

[3] = system: Helicoverpa armigera eggs; test: Helicoverpa egg hatch; conditions: for ovicidal efficacy against H. armigera eggs (FIG. 6): 1% diethoxyglycol in water; for % Inhibition of egg hatch relative to control: Example 16, exposed 2-10 seconds, day 6 post laying
Protocol: A range of concentrations were made up in water and the eggs placed in the solutions for approximately 2-10 seconds. The eggs which had been laid on cloth were then blotted dry and placed in an incubator at 26° C. for 3-4 days until hatch. Hatch rates were then assessed compared to a water only treated control (FIG. 5).
The compound was dissolved in 100% diethoxyglycol and diluted to a final concentration of 1% in water.
Several hundred Helicoverpa armigera eggs (Tatura×Toowoomba strains) were collected, that had been laid on fine mesh cloth over a 24 hour period.
Batches of Helicoverpa eggs were exposed to a specific inhibitor solution for between 2-10 seconds the excess solution drained by blotting with dry tissue paper. The egg masses were then placed in a humid box at 25 degrees until egg hatch. Control eggs were exposed to absolute methanol as described above. At day 6 post laying the eggs were assessed from the different treatments and the percentage of egg hatch determined relative to the control as shown in Table 12.
Batches of Helicoverpa eggs were then exposed to a specific inhibitor solution for between 2-10 seconds the excess solution drained by blotting with dry tissue paper. The egg masses were then placed in a humid box at 25° C. until egg hatch. Control eggs were exposed to absolute methanol as described above. At day 6 post laying the eggs were assessed from the different treatments and the percentage of egg hatch determined relative to the control as shown in Table 13.

H. contortus eggs = test: Haemonchus contortus egg hatch; assay type: in vivo
Protocol: In an attempt to improve control of H. contortus the effects of the compound 5,5′-dimethyl-2,2′-dipyridyl was examined on H. contortus eggs. Eggs were recovered from the faeces of infected sheep using a standard sucrose floatation method. The eggs were corrected to a density of approximately 2,500 eggs per mL and were then exposed to varying concentrations of compound and incubated for 48 hours at 25° C. The eggs were then examined to determine the ovicidal efficacy of the compound in comparison to untreated control and a solvent only control.
In addition, the ovicidal efficacy of the compound 2-acetyl-1-tetralone was examined against H. contortus (FIG. 10). The same protocol was used as described for 5,5′-dimethyl-2,2′-dipyridyl.

[4] = system: proteases in louse egg shell washings (ESW); test: Gelatine substrate SDS-PAGE of louse egg shell washings incubated with protease inhibitors; assay type: biochemical, Pediculus humanus humanus; conditions: gelatine SDS-PAGE strips; EDTA 10 mM, 1,10-phenanthroline 10 mM, PMSF 5 mM, E-64 10 μM, Pepstatin 5 μM; 3 hrs at 37° C.
Protocol: Within 12 hours of hatching 50 body lice eggs (Pediculus humanus humanus) were removed from the hair and placed in a 1 mL eppendorf tube. 20 μL of distilled water was added to the unhatched eggs and the preparation incubated for 30 minutes at 32° C. The 20 μL was recovered, freeze dried and stored at −70° C. This sample was referred to as sample 1. A number of other samples were also collected as described. Sample 2 was collected by removing the unhatched louse eggs from four hairs that were approximately 3 cm long, cutting the hair into 0.5 cm lengths, and placing them into a microfuge tube containing 20 μl of distilled water and incubating at 32° C. for 30 minutes. Sample 3 was collected as for sample 2, but the hair was placed in a tube containing 10 mL of 1% sodium hypochlorite for 1 minute followed by five 1 minute washes in 25 mL of distilled water to remove the sodium hypochlorite before being incubated in a microfuge tube containing 20 μl of distilled water and incubated as for Sample 2. Sample 4 was collected from unhatched eggs which were removed from the hair and washed with 1% sodium hypochlorite and incubated in 20 μl of distilled water in the same manner as the hair in Sample 3. Finally, Sample 5 was collected from eggs that were within 24 hrs of hatching which were washed with 1% sodium hypochlorite, then returned to the incubator at 32° C. until they hatched, the empty egg shells collected 0-2 hrs after egg-hatching, placed in a 1 mL microfuge tube containing 20 μl of distilled water and incubated as for Samples 1-4. For all samples 1-5 the 20 μl of fluid was recovered, freeze-dried and stored at −70° C. The washings recovered from these freshly hatched egg shells are referred to as egg-shell-washings (ESWs). In order to look for the presence of proteases present in these different samples, the freeze-dried samples were resuspended in 15 μL of non-reducing SDS sample buffer, centrifuged at 10,000 g for 2 minutes and the entire 15 μL loaded on to 10% gelatine substrate SDS-PAGE gels. Gels were run at 4° C. for 10 minutes at 10 mA followed by a further 25 minutes at 15 mA per gel. They were then incubated for 2×20 minutes in a 2.5% Triton-X 100 solution followed by a three hour incubation in 0.1M Tris/HCl containing 1 mM CaCl2 pH 8.0. Activity was detected as clear areas on the gel the result of protease activity degrading the gelatine within the gel.
Protease activity in the ESWs from louse eggs was also examined using two-dimensional gel electrophoresis. It was necessary to collect large numbers of freshly hatched egg shells. Following egglaying onto pieces of cloth, adult female lice were removed and the cloth with the eggs washed with 1% sodium hypochlorite as for collection of ESWs. The eggs were then returned to the incubator and permitted to hatch. Typically 100 to 500 hatched egg shells were collected (0-2 hours post hatching), placed in a microfuge tube containing 200 μl of distilled water, incubated and sample treated as described above. For analysis, ESWs were resuspended in rehydration buffer (8 M Urea, 2% 3-[(3-cholamidopropyl) dimethylammonio]-1-propanesulfonate 2% Immobilised pH gradient buffer 3-10 (Amersham Phamacia Biotech, Uppsala, Sweden)) and used to rehydrate 7 cm Immobiline Dry strips pH 3-10 (Amersham Bioscience) overnight. Strips were transferred to the Multiphor II (Pharmacia, Sweden) apparatus, electrophoresed in the first dimension at 200 V for 1 min, increasing to 3,500 V over the next 90 min followed by 65 min at 3,500 V, equilibrated (6 M urea, 30% glycerol, 50 mM Tris pH 8.8 and 2% SDS) and then run on a 10% SDS-PAGE gel containing 0.1% gelatin for the second dimension. The gel was then run and developed as previously described.
10% SDS-PAGE gelatine substrate gels were loaded with freeze dried egg shell washings from 100 lice eggs that had been resuspended in 50 μL of non-reducing sample buffer with samples run at 10 μL per lane. […]

Plutella xylostella eggs = test: Glass house ovicidal test, Plutella eggs on cabbage plants; assay type: in vivo; conditions: 10 eggs per plant
Description: A number of treatments and replicates were set up in the glass house using young cabbage plants that were at the 4-5 leaf stage. Plutella xylostella eggs were laid by gravid females on the leaves such that each plant contained 10 eggs. The plants were sprayed with a commercial ovicide or using the compounds 5,5′-dimethyl-2,2′-dipyridyl and 5,5′ diethyl-2,2′-dipyridyl in a formulation at the rate of 200 L/Ha using a track sprayer. Controls of water only or Placebo only were also included. The ovicidal efficacy was monitored over a number of days an the number of eggs hatching and caterpillar larvae emerging recorded (Table 22).

[5] = system: Plutella xylostella eggs (Waite strain); test: Reversal of ovicidal effect by added metal ions (FeSO4), Plutella eggs; assay type: in vivo
Protocol: (§1) Within 24 hours of collection the following experimental design was chosen. Batches of eggs were exposed to 10 mM 6,6′-dimethyl-2,2′-dipyridyl for 2 seconds while additional batches of eggs were exposed to the solvent only (Methanol) for 2 seconds. All batches of eggs were allowed to air dry for 20 minutes at room temperature. The eggs were then given a 2 second exposure to FeSO4 at either 10, 5 or 1 mM, air dried and put in the incubator at 24° C. and allowed to hatch over the next 6 days. In addition, a positive control of 10 mM 6,6′-dimethyl-2,2′-dipyridyl was set up in which eggs were exposed to this compound for 2 seconds, air dried and placed in the incubator.
as §1, with “10 mM 5,5′-dimethyl-2,2′-dipyridyl for 2” for “10 mM 6,6′-dimethyl-2,2′-dipyridyl for 2”, “FeSO4 at 10, 5” for “FeSO4 at either 10, 5”, “put in an incubator at” for “put in the incubator at”, “of 10 mM, 5,5′-dimethyl-2,2′-dipyridyl was set” for “of 10 mM 6,6′-dimethyl-2,2′-dipyridyl was set”

[6] = 10 mM (200 L/Ha), with wetting agent 0.3 ml/L
[7] = 20 mM (200 L/Ha), with wetting agent 0.3 ml/L

`CC(=O)C1CCc2ccccc2C1=O` (stereo not shown) [2-acetyl-1-tetralone] was tested, and the “ovicidal efficacy against Plutella eggs (FIG. 7)” value ([1]; 0.5 mM) was “no inhibition”, the “ovicidal efficacy against Plutella eggs (FIG. 7)” value ([1]; 2 and 1 mM) was “strong ovicidal efficacy” and the “Activity class 0 = inactive 1 = low 2 = med 3 = high” value ([2]; 1 mM) was 3 (a pLD50 greater than 4 is considered strongly active (Class 3)). The “Activity class 0 = inactive 1 = low 2 = med 3 = high” value ([2]; 10 mM) was 1 (a pLD50 value between 2 and 3 is considered weakly active (Class 1)), the “ovicidal efficacy against H. armigera eggs (FIG. 6)” value ([3]; 1 mM) was “efficacy declining” and the “ovicidal efficacy against H. armigera eggs (FIG. 6)” value ([3]; 2 mM) was “strong ovicidal efficacy”. The “inhibition of H. contortus egg hatch (FIG. 10)” value (H. contortus eggs; 22 ug/mL (0.1 mM)) was “Partial inhibition” and the “inhibition of H. contortus egg hatch (FIG. 10)” value (H. contortus eggs; 220 ug/mL (1 mM) and 110 ug/mL (0.5 mM)) was “highly effective”.

For `CC(C)CC(=O)N[C@H](C(=O)N[C@H](C(=O)N[C@@H](CC(C)C)[C@@H](O)CC(=O)N[C@@H](C)C(=O)N[C@@H](CC(C)C)[C@@H](O)CC(=O)O)C(C)C)C(C)C` [pepstatin] (Isovaleryl-VV[Sta]A[Sta]-OH), the “protease activity of egg shell washings compared to untreated controls” value [4] was “no apparent reduction in protease activity”.

With `CC(C)C[C@H](NC(=O)[C@H]1O[C@@H]1C(=O)O)C(=O)NCCCCN=C(N)N` [E-64] the “protease activity of egg shell washings compared to untreated controls” value [4] was “no apparent reduction in protease activity”.

With `O=C(O)CN(CCN(CC(=O)O)CC(=O)O)CC(=O)O` [EDTA, ethylenediamine tetraacetic acid] the “protease activity of egg shell washings compared to untreated controls” value [4] was “reduction in protease activity”.

With `Cc1ccc(-c2ccc(C)cn2)nc1` [5,5′dimethyl-2,2′-dipyridyl] the “# LARVAE EMERGED 0-24 h” value (Plutella xylostella eggs; [6]) was 0, the “# LARVAE EMERGED 24-48 h” value (Plutella xylostella eggs; [6]) was 0 and the “# LARVAE EMERGED 0-24 h” value (Plutella xylostella eggs; [7]) was 0. The “# LARVAE EMERGED 24-48 h” value (Plutella xylostella eggs; [7]) was 0 and the “# LARVAE EMERGED 48-72 h” value (Plutella xylostella eggs; 20 mM (200 L/Ha), with wetting agent 0.3 ml/L, 48-72 h) was 0.

`CCc1ccc(-c2ccc(CC)cn2)nc1` [5,5′diethyl-2,2′-dipyridyl] was tested, and the “# LARVAE EMERGED 0-24 h” value (Plutella xylostella eggs; 10 mM (200 L/Ha), No Wetting Agent) was 0 and the “# LARVAE EMERGED 0-24 h” value (Plutella xylostella eggs; [6]) was 0.

`Cc1cccc(-c2cccc(C)n2)n1` [6,6′-dimethyl-2,2′-dipyridyl] was tested, and the “% Inhibition of egg hatch relative to control” value ([1]; 1 mM) was “strong ovicidal effects”, the “% Inhibition of egg hatch relative to control” value ([1]; 10 mM) was “strong ovicidal effects” and the “egg hatching of Plutella eggs (Tables 10 and 11)” value ([1]; 0.1 and 0.01 mM) was “no observable effects”. For the same molecule, the “egg hatching of Plutella eggs (Tables 10 and 11)” value ([1]; 10 and 1 mM) was “effective at inhibiting egg hatching”, the “% Inhibition of egg hatch relative to control” value ([3]; 0.001 mM) was “No inhibition” and the “% Inhibition of egg hatch relative to control” value ([3]; 0.01 mM) was “No inhibition”. The “% Inhibition of egg hatch relative to control” value ([3]; 0.1 mM) was “No inhibition”, the “% Inhibition of egg hatch relative to control” value ([3]; 1 mM) was “significantly inhibit” and the “% Inhibition of egg hatch relative to control” value ([3]; 10 mM) was “significantly inhibit”. The “% Inhibition relative to the FeSO4 controls” value ([5]; 10 mM compound followed by 2 second exposure to 1 mM FeSO4) was 3%, the “% Inhibition relative to the FeSO4 controls” value ([5]; 10 mM compound followed by 2 second exposure to 5 mM FeSO4) was 0% and the “% Inhibition relative to the FeSO4 controls” value ([5]; 10 mM compound followed by 2 second exposure to 10 mM FeSO4) was 38%.

`O=S(=O)(F)Cc1ccccc1` [PMSF] was tested, and the “protease activity of egg shell washings compared to untreated controls” value [4] was “no apparent reduction in protease activity”.
